From patent publication US8158380B2, “Imaging agents for protein misfolding” (New York University, priority 2007, dated 2012)

Molecular target: amyloid plaques (Homo sapiens, UniProt P05067)
Assay: In vivo staining after intraperitoneal injection in PS/APP Tg mice, sections viewed under fluorescent microscope
Design: from tissue; host or cells: brain of PS/APP (APP/PS1) transgenic mice, as sections or in vivo
Protocol: Methods used: Five groups each of 6-month-old PS/APP Tg mice were tested (which have abundant amyloid plaques) with the compounds of the present invention. The mice received an intraperitoneal injection of compounds 23, 8 or 8F (30 μg/gram). They were sacrificed 24 hours later by ip injection of sodium pentobarbital (150 mg/kg). All animals were transcardially perfused with 20 ml of 0.1 M phosphate buffered saline (pH 7.4) with the addition of heparin followed by 80 ml of 4% formaldehyde in 0.1 M phosphate buffer. The brain was removed from the skull, cryoprotected using increasing concentrations of sucrose, and cut into serial 40-μm-thick coronal section on a freezing microtome (Leica SM2400, Nussloch, Germany). Anti-amyloid β immunohistochemistry was performed on free-floating sections, using our previously published protocols^20-23. In brief, endogenous peroxidase activity was quenched in a bath with 0.3% H2O2 for 30 min. Unspecific staining was blocked by incubation in the blocking solution provided as a part of “Mouse on mouse” kit (Vector Elite staining kit, Vector Laboratories, Burlingame, Calif.). This procedure allows for detection of antigens in murine tissue using mouse mAb avoiding substantial background. Concentration of all mAbs was 0.25 mg/ml with the total concentration of protein in a stock solution of 1 mg/ml as assessed by a Coomasie colorimetric assay. 1:2000 dilution of the stock solution was used. Primary antibodies were applied for 30 minutes followed by thorough washing and the anti-mouse IgG biotinylated secondary antibody according to the kit manufacturer instruction. For fluorescent microscopy sections were incubated with streptavidin conjugated with Cy3 (1:400; Sigma, St. Louis Mo.) whereas for light microscopy they were incubated with avidin-horseradish peroxidase complex and developed using 3,3′-diaminobenzidine kit with nickel ammonium sulfate (Vector Laboratories, Burlingame, Calif.). Following immunostaining, sections were carried on slides, air-dried, and cover-slipped. […]

[1] = AD mice, in vivo injection, sacrificed 24 hours after injection

Chain of amyloid plaques (P05067 672-713 limits assumed): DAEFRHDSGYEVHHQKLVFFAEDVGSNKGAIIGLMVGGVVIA

ability to cross the blood brain barrier [1]: able to cross the blood brain barrier
labeling of amyloid plaques in vivo [1]: label amyloid plaques in vivo
effectiveness in blood-brain barrier permeability and labeling amyloid plaques in tissue sections and in vivo (AD model transgenic mice): most effective
Compound: COc1ccc2nc(/C=C/c3ccc(-c4ccc(F)cc4)cc3)ccc2c1 [compound 8F]
